Test results: patent US5721231A, “Thienotriazolodiazepine compound and pharmaceutical use thereof” (Yoshitomi Pharmaceutical Industries, Ltd., priority 1993, dated 1998)

Experiments:
[1] = test system: CD11b expression in U937 cells; experiment: Effect on CD11b expression in human histiocytic leukemia cell line U937; format: cell-based; conditions: U-937, 72 h, PDB 10 ng/ml, 3 days, read-out: Inhibitory effect on CD11b expression (IC50)
Procedure: Effect on the expression of CD11b antigen, which constitutes the a chain of Mac-1, one of the adhesion molecules expressed on the surface of leukocytic cells, was investigated. U937 cells were suspended in RPMI1640 medium containing 20% fetal calf serum, plated with phorbol 12,13-dibutyrate (PDB, 10 ng/ml) and Compound A or Compound B into 96-well filtration plates (30,000 cells/well), and cultured for 3 days at 37° C. in 5% CO2. After the cells were washed once with RPMI1640 medium, rat anti-human CD11b monoclonal antibody (2 μg/ml) was added and the plates were kept for 1 hour on ice. After the cells were washed twice, peroxidase-conjugated anti-rat immunoglobulin antibody (1 μg/ml) was added, and the cells were kept for 1 hour on ice. After the cells were washed 3 times, o-phenylenediamine was added as a substrate for peroxidase. The plates were allowed to stand for 15 minutes at room temperature, and absorbance at 490 nm was measured with a 96-well plate reader. The absorbance was regarded as an indicator of CD11b antigen expression.

[2] = test system: Antigen (egg albumin)-induced eosinotaxis in lung of guinea pigs; experiment: Inhibitory effect on topical eosinotaxis in lung induced by antigen (Experimental Example 5); format: in vivo, guinea pig (male Hartley)
Procedure: Male Hartley guinea pigs (4 weeks old, Japan SLC) were bred under the homoiothermal (23±2° C.) and homohumidity (55±5%) conditions.
Compound A was dissolved in 20% 2-hydroxypropyl-β-cyclodextrin containing 1% dimethyl sulfoxide to a concentration of 0.01%.
Antigen (egg albumin, Sigma, 10 mg/ml in saline) was nebulized on guinea pigs for 10 minutes with an ultrasonic nebulizer (NE-U12, OMRON CORPORATION). One week later, the antigen was nebulized again in the same manner.
At one week after the second antigen inhalation, mepyramine (Sigma, 10 mg/ml in saline) was intraperitoneally administered by 1 ml/kg. Twenty minutes later, a solution of Compound A (0.01%) or the medium (control) was nebulized for 10 minutes with a jet nebulizer (Nippon Shoji, Ltd.). Immediately thereafter, the antigen (egg albumin, 10 mg/ml) was nebulized for 5 minutes with an ultrasonic nebulizer. Five hours later, the solution of Compound A (0.01%) or the medium was nebulized again for 10 minutes with a jet nebulizer. […] At 24 hours after the antigen nebulizing, the lung was washed three times with physiological saline (10 ml, 37° C.), and the total number of the cells in the collected lung washings was counted by a colter counter (MEK 4200, Nippon Koden). […] The number of eosinophils was calculated from the ratio of existing cells and the total cell number.

[3] = test system: Oxazolone-induced ear edema in mice; experiment: Oxazolone-induced ear edema in mice (intradermal administration, Experimental Example 2); format: in vivo, mouse
Procedure: […] On day 7, 5 μl of oxazolone solution was applied to each surface of the right ear. After 24 hours (day 8), the right and left ears were cut out with a puncher of 6 mm in diameter and weighed with an electronic reading balance. The difference in weight between the oxazolone-treated ear (right) and untreated ear (left) was taken to reflect the degree of ear edema. Compound A was dissolved in 20% 2-hydroxypropyl-β-cyclodextrinsolution containing 1% dimethyl sulfoxide and injected intradermally into the mouse right ear (25 μl/site) on day 7 (immediately before application of oxazolone).

[4] = test system: Adhesion of guinea pig peritoneal cells to HUVECs; experiment: Cell adhesion of guinea pig peritoneal cells to human umbilical vein-derived endothelial cells (HUVECs); format: cell-based
Procedure: HUVECs were suspended in 199 medium containing 20% fetal calf serum, 20 μg/ml endothelial cell growth factor derived from bovine brain and 100 μg/ml heparin, plated into 96-well microculture plates coated with collagen, and cultured at 37° C. in 5% CO2. When cells were grown to confluence, interleukin 1 (10 U/ml) was added, and the cells were cultured for 24 hours. After the cells were washed once with 199 medium, leukotriene B4 (1 μM), Compound A and guinea pig peritoneal cells [300,000 cells/well, obtained by intraperitoneally injecting 0.1% oyster glycogen (25 ml) and recovering 5 hours later] were added, and the cells were incubated for 30 minutes at 37° C. in 5% CO2. After nonadherent cells were removed by inverting the plates, rose bengal solution (0.25% in phosphate-buffered physiological saline) was added and the plates were kept still for 5 minutes. The cells were washed twice with 199 medium. Ethanol (50% in phosphate-buffered physiological saline) was added (200 μl/well) and the cells were kept still for 30 minutes to allow the leakage of rose bengal dye incorporated into the cells. Absorbance at 520 nm was measured with a 96-well plate reader and the value obtained by subtracting absorbance of the well Containing HUVECs alone was taken as an indicator of cell adhesion.

[5] = test system: Picryl chloride-induced ear edema in mice; experiment: Picryl chloride-induced ear edema in mice (Experimental Example 3); format: in vivo, mouse; conditions: cyclophosphamide +, 10 μl/site intradermal, control 10.8 ± 1.3
Procedure: Cyclophosphamide (150 mg/kg) was administered subcutaneously to mice on day -2. The mice were sensitized twice by applying 50 μl of picryl chloride solution (70 mg/ml in ethanol) to their shaved abdomen on days 0 and 1. On day 13, 10 μl of picryl chloride solution (10 mg/ml in ethanol) was applied to each surface of the right ear. Two days later (on day 15), the right and left ears were cut out with a puncher of 6 mm in diameter and weighed with an electronic reading balance. The difference in weight between the treated (right) ear and the untreated (left) ear was taken as an indicator of edema. […] […] The group treated with cyclophosphamide and picryl chloride was taken as a control, and statistical significance was evaluated by Dunnett's test.

[6] = test system: VCAM-1 expression in HUVECs; experiment: Inhibitory effect on expression of VCAM-1 in human umbilical vein-derived endothelial cells (HUVECs); format: cell-based
Procedure: HUVECs were suspended in 199 medium (Biocell Laboratories, Inc., Rancho Dominguez, Calif. USA) containing 20% fetal calf serum, 20 μg/ml endothelial cell growth factor derived from bovine brain and 100 μg/ml heparin, plated into 96-well microculture plates coated with collagen, and cultured at 37° C. in 5% CO2. When cells were grown to confluence, the cells received tumor necrosis factor-α (100 U/ml) and the test compound A, and cultured for 5 hours. After the cells were washed once with 199 medium, mouse anti-human VCAM-1 monoclonal antibody (2 μg/ml) was added, and the cells were incubated for 1 hour at room temperature. After the cells were washed twice, peroxidase-conjugated anti-mouse immunoglobulin antibody was added, and the cells were incubated for 1 hour at room temperature. After the cells were washed 3 times, a substrate for peroxidase, 2,2'-azino-bis(3-ethylbenzothiazolone-6-sulfonicacid), was added. After the plates were stood for 15 minutes at room temperature, absorbance at 405 nm with a reference wave length of 490 nm was measured with a 96-well microplate reader and was regarded as an indicator of VCAM-1 expression.

[7] = test system: TDI-induced rhinitis in guinea pig; experiment: Tolylene 2,4-diisocyanate (TDI)-induced rhinitis in guinea pig (Experimental Example 4); format: in vivo; conditions: for Number of leukocytes, mean ± S.D.: sensitized, control 20.0 ± 2.04, p < 0.01
Procedure: Guinea pigs (three to six per group) were sensitized by applying a mixture of TDI and ethyl acetate (1:7) with cotton buds to both of their nasal cavities under anesthetization with diethyl ether on days 0 to 3 and days 7 to 10. On days 27, 29, 31 and 35, the reaction of the guinea pigs was challenged by applying the same mixture to the nasal cavities in a similar manner as described above. Three hours after the last challenge, the guinea pigs were anesthetized with pentobarbital (30 mg/kg, i.p.), and the nasal cavities were washed with physiological saline. Number of leukocytes in the fluid obtained above was counted with an automatic blood cell counter. Compound A (0.1, 1 or 10 μg/20 μl/site×2/guinea pig) was dissolved in 20% hydroxypropyl-β-cyclodextrin solution containing 1% dimethyl sulfoxide and injected into the both nasal cavities of guinea pigs 1 hour before the last challenge (on day 35).

[8] = test system: Oxazolone-induced ear edema in mice; experiment: Oxazolone-induced ear edema in mice (oral administration, Experimental Example 8); format: in vivo, mouse; conditions: for Ear edema (right ear-left ear), mean ± S.D.: sensitized, days 0 to 8, control 17.6 ± 1.1, p < 0.01
Procedure: Mice were sensitized by applying 50 μl of oxazolone solution (50 mg/ml in acetone) to their shaved abdomen on day 0. On day 7, 5 μl of oxazolone was applied to each surface of the right ear. After 24 hours, the right and left ears were cut out with a puncher of 6 mm in diameter and weighed with an electronic reading balance. The difference in weight between the treated ear (right) and untreated ear (left) was taken to reflect the degree of ear edema. Compound A was suspended in 0.5% methylcellulose solution and administered orally (0.1 ml/10 g body weight) on days 0 to 8.

With `COc1ccccc1NC(=O)NC1N=C(c2ccc(Cl)cc2)c2c(sc(C)c2C)-n2c(C)nnc21` (single isomer, unassigned; (-)) [Compound B, (-)-N-(4-(4-chlorophenyl)-2,3,9-trimethyl-6H-thieno[3,2-f][1,2,4]triazolo[4,3-a][1,4]diazepin-6-yl)-N'-(2-methoxyphenyl)urea] the IC50 [1] was 63 nM.

In the case of `COc1ccccc1NC(=O)NC1N=C(c2ccc(Cl)cc2)c2c(sc(C)c2C)-n2c(C)nnc21` (racemic) [Compound A, N-(4-(4-chlorophenyl)-2,3,9-trimethyl-6H-thieno[3,2-f][1,2,4]triazolo[4,3-a][1,4]diazepin-6-yl)-N'-(2-methoxyphenyl)urea], the “Number of eosinophils (×10^6)” value ([2]; 0.01% solution nebulized, lung washings 24 hours after antigen, control 20.7 ± 2.95, p < 0.05) is reported as 8.9 ± 3.7 ×10^6, the “Eosinophil in lung washings (in words)” value ([2]; inhalation, 0.01%) is reported as “significant decrease in eosinophil in lung washings” and the “Inhibition of ear edema (in words)” value ([3]; intradermal administration) is reported as “inhibited ear edema in sensitized or unsensitized mice in a dose-dependent manner”. For the same compound, the “Ear edema (right ear-left ear), mean ± S.D.” value (from here on “Ear edema (right ear-left ear)”) ([3]; sensitized, 1 μg/site intradermal, control 16.8 ± 0.7, p < 0.01) was 15.0 ± 0.6 mg, the “Ear edema (right ear-left ear)” value ([3]; sensitized, 10 μg/site intradermal, control 16.8 ± 0.7, p < 0.01) was 13.3 ± 0.7 mg and the “Ear edema (right ear-left ear)” value ([3]; unsensitized, 1 μg/site intradermal, control 7.7 ± 1.6, p < 0.05) was 5.7 ± 1.1 mg. For the same compound, the “Ear edema (right ear-left ear)” value ([3]; unsensitized, 10 μg/site intradermal, control 7.7 ± 1.6, p < 0.05) was 5.3 ± 0.7 mg, the “Inhibition of adhesion of guinea pig peritoneal cells (in words)” value [4] was “inhibited adhesion of guinea pig peritoneal cells to vascular endothelial cells in a concentration-dependent manner” and the inhibition at 0.01 µM ([4]; Cavia porcellus, HUVEC, Compound A 0.01 μM, leukotriene B4 1 μM) was -4.7%. The inhibition at 0.1 µM ([4]; Cavia porcellus, HUVEC, Compound A 0.1 μM, leukotriene B4 1 μM) was 32.6%, the inhibition at 1 µM ([4]; Cavia porcellus, HUVEC, Compound A 1 μM, leukotriene B4 1 μM) was 95.5% and the inhibition at 10 µM ([4]; Cavia porcellus, HUVEC, Compound A 10 μM, leukotriene B4 1 μM) was 97.9%. The IC50 ([4]; Cavia porcellus, HUVEC, leukotriene B4 1 μM, read-out: concentration necessary for 50% inhibition (IC50 values, μM) of adhesion) was ~0.2 µM, the “Cell adhesion (absorbance at 520 nm)” value ([4]; Compound A 0.01 μM, leukotriene B4 1 μM) was 0.222 absorbance at 520 nm and the “Cell adhesion (absorbance at 520 nm)” value ([4]; Compound A 0.1 μM, leukotriene B4 1 μM) was 0.169 absorbance at 520 nm. For the same compound, the “Cell adhesion (absorbance at 520 nm)” value ([4]; Compound A 1 μM, leukotriene B4 1 μM) was 0.080 absorbance at 520 nm, the “Cell adhesion (absorbance at 520 nm)” value ([4]; Compound A 10 μM, leukotriene B4 1 μM) was 0.077 absorbance at 520 nm and the IC50 [1] was 250 nM. For the same compound, the “Ear edema (right ear-left ear)” value [5] was 7.8 ± 0.4 mg, the “Inhibition of expression of VCAM-1 on HUVEC (in words)” value [6] was “inhibited expression of VCAM-1 on HUVEC in a concentration-dependent manner” and the inhibition at 1 pM ([6]; Homo sapiens, HUVEC, Compound A 1 pM, TNF-α 100 U/ml, 5 hours) was 19.7%. It also gave an inhibition at 10 pM ([6]; Homo sapiens, HUVEC, Compound A 10 pM, TNF-α 100 U/ml, 5 hours) of 67.1%, an inhibition at 0.0001 µM ([6]; Homo sapiens, HUVEC, Compound A 100 pM, TNF-α 100 U/ml, 5 hours) of 82.3% and an inhibition at 0.001 µM ([6]; Homo sapiens, HUVEC, Compound A 1000 pM, TNF-α 100 U/ml, 5 hours) of 80.8%. The “Inhibition of leukocyte infiltration (in words)” value ([7]; administration into the nasal cavity) was “inhibited the leukocyte infiltration in TDI-induced guinea pig rhinitis dose-dependently”, the “Number of leukocytes, mean ± S.D.” value ([7]; 0.1 μg/site into nasal cavities) was 12.7 ± 1.41 ×100 cells/μl and the “Number of leukocytes, mean ± S.D.” value ([7]; 1 μg/site into nasal cavities) was 7.1 ± 1.19 ×100 cells/μl. The “Number of leukocytes, mean ± S.D.” value ([7]; 10 μg/site into nasal cavities) was 2.8 ± 0.17 ×100 cells/μl, the “Inhibition of ear edema (in words)” value ([8]; oral administration) was “inhibited ear edema in mice in a dose-dependent manner” and the “Ear edema (right ear-left ear)” value ([8]; oral 10 mg/kg/day) was 16.0 ± 0.7 mg. For the same compound, the “Ear edema (right ear-left ear)” value ([8]; oral 30 mg/kg/day) was 15.4 ± 0.5 mg and the “Ear edema (right ear-left ear)” value ([8]; oral 100 mg/kg/day) was 14.4 ± 0.5 mg.
